Measured values taken from patent publication US20110009374A1, “METHOD OF WOUND HEALING AND SCAR MODULATION” (priority 2009, published 2011).

Assays:
[1] = system: linear subcutaneous-deep incision wounds in hairless mice (Skh:HR-1); assay: Example 2 scar evaluation by Vancouver Scale at day 21 and gross evaluation; type: in vivo; parameters: key: Vancouver Scale subscores (18-point total), mean of two observers
Procedure: (§1) Twelve hairless mice (Skh:HR-1) with an average weight of […] were treated topically with a local anesthetic (LMX-4, Ferndale Laboratories, Inc.) for 30 minutes prior to wounding for dermal anesthesia. Antiseptics were not used because of the possibility of their local effect on the wound healing process.
(§2) The mice were subdivided into two groups, A and B. Each mouse received three linear, 10 mm long, subcutaneous-deep incision wounds parallel to the spinal column. The first incision was near the spinal column on the left side (C), one at a position 10 mm away from the first on the same side (L), and one on the right side about 10 mm from the center line or spinal column (R). All incision wounds were made with a 0.3 mm blade surgical blade. Because of the loose nature of the hairless mouse epidermis the wounds spread to as wide as 3 mm. Each mouse was housed separately.
(§3) 1) 0.25% Formulations: water (79.75%), ethanol (18%), methylprednisolone acetate or prednisolone acetate (0.25%), and ammonium acryloyldimethyltaurate/VP copolymer (2%).
(§4) 2) 1% Formulations: water (79%), ethanol (18%), methylpredinisolone acetate or prednisolone acetate (1%), and ammonium acryloyldimethyltaurate/VP copolymer (2%).
(§5) In Group A, wounds C and L were treated with the 0.25% and 1% methylprednisolone acetate formulations, respectively, and wound R was the control or untreated wound. In Group B, wounds C and L were treated with the 0.25% and 1% prednisolone acetate formulations, respectively and wound R was the control. The study drug (methylprednisolone or prednisolone) was applied to the treatment wounds twice daily (8 hours apart) beginning 1 h after the incision on day 1 and continuing through day 21. The wounds were far enough apart to avoid the spread of the treatment gel from the treated wound to the control wound. No additional physical barrier, such as a gauze bandage, was used.
Each mouse was kept in its cage during days 14-21. On day 21, each scar was assessed according to the Vancouver Scale (18 points) under magnification by two observers independently and the scores were averaged and recorded. Progressive re-epithelializaton of the wound surface from the wound edges continued until the wound surface was completely closed at a time between days 14 and 21.

[2] = system: linear subcutaneous-deep incision wounds in hairless mice (Skh:HR-1); assay: Example 2 wound healing in hairless mice: healing evaluation by wound width; type: in vivo
Procedure: as §1, §2, §3, §4, §5
Healing evaluation was made by measuring wound closure, which was assessed by the width of the wound. The width of each scar was measured with digital calipers at the widest point while subject was lying motionless, on its ventral side. Digital photographs were taken to record the healing process. The mean width of wound was recorded on days 1, 3, 5, 7, 9, 11, 13, 15, 17, 19 and 21.

SMILES: CC(=O)OCC(=O)[C@@]1(O)CC[C@H]2[C@@H]3C[C@H](C)C4=CC(=O)C=C[C@]4(C)[C@H]3[C@@H](O)C[C@@]21C [methylprednisolone acetate]
- Mean Vancouver Scale Scar Scoring, Height ([1]; wound C, 0.25% formulation): 0
- Mean Vancouver Scale Scar Scoring, Pigmentation ([1]; wound C, 0.25% formulation): 1
- Mean Vancouver Scale Scar Scoring, Pliability ([1]; wound C, 0.25% formulation): 2.0
- Mean Vancouver Scale Scar Scoring, Vascularity ([1]; wound C, 0.25% formulation): 0
- Mean Vancouver Scale Scar Scoring, Height ([1]; wound L, 1% formulation): 0
- Mean Vancouver Scale Scar Scoring, Pigmentation ([1]; wound L, 1% formulation): 1
- Mean Vancouver Scale Scar Scoring, Pliability ([1]; wound L, 1% formulation): 1.5
- Mean Vancouver Scale Scar Scoring, Vascularity ([1]; wound L, 1% formulation): 0
- Mean Wound Width at Widest Margin ([2]; Day 1, wound C, 0.25% formulation twice daily): 3.1 ± 0.3 mm
- Mean Wound Width at Widest Margin ([2]; Day 1, wound L, 1% formulation twice daily): 3.0 ± 0.2 mm
- Mean Wound Width at Widest Margin ([2]; Day 3, wound C, 0.25% formulation twice daily): 2.5 ± 0.2 mm
- Mean Wound Width at Widest Margin ([2]; Day 3, wound L, 1% formulation twice daily): 2.4 ± 0.3 mm
- Mean Wound Width at Widest Margin ([2]; Day 5, wound C, 0.25% formulation twice daily): 2.0 ± 0.3 mm
- Mean Wound Width at Widest Margin ([2]; Day 5, wound L, 1% formulation twice daily): 1.9 ± 0.4 mm
- Mean Wound Width at Widest Margin ([2]; Day 7, wound C, 0.25% formulation twice daily): 1.5 ± 0.2 mm
- Mean Wound Width at Widest Margin ([2]; Day 7, wound L, 1% formulation twice daily): 1.4 ± 0.2 mm
- Mean Wound Width at Widest Margin ([2]; Day 9, wound C, 0.25% formulation twice daily): 1.0 ± 0.3 mm
- Mean Wound Width at Widest Margin ([2]; Day 9, wound L, 1% formulation twice daily): 0.9 ± 0.3 mm
- Mean Wound Width at Widest Margin ([2]; Day 11, wound C, 0.25% formulation twice daily): 0.5 ± 0.2 mm
- Mean Wound Width at Widest Margin ([2]; Day 11, wound L, 1% formulation twice daily): 0.5 ± 0.1 mm
- Mean Wound Width at Widest Margin ([2]; Day 13, wound C, 0.25% formulation twice daily): 0.1 ± 0.3 mm
- Mean Wound Width at Widest Margin ([2]; Day 13, wound L, 1% formulation twice daily): 0.1 ± 0.2 mm
- Mean Wound Width at Widest Margin ([2]; Day 15, wound C, 0.25% formulation twice daily): 0 mm
- Mean Wound Width at Widest Margin ([2]; Day 15, wound L, 1% formulation twice daily): 0 mm
- Mean Wound Width at Widest Margin ([2]; Day 17, wound C, 0.25% formulation twice daily): 0 mm
- Mean Wound Width at Widest Margin ([2]; Day 17, wound L, 1% formulation twice daily): 0 mm
- Mean Wound Width at Widest Margin ([2]; Day 19, wound C, 0.25% formulation twice daily): 0 mm
- Mean Wound Width at Widest Margin ([2]; Day 19, wound L, 1% formulation twice daily): 0 mm
- Mean Wound Width at Widest Margin ([2]; Day 21, wound C, 0.25% formulation twice daily): 0 mm
- Mean Wound Width at Widest Margin ([2]; Day 21, wound L, 1% formulation twice daily): 0 mm
